Results as given in patent US12312333B2, “SK channel positive allosteric modulators” (Chapman University, priority 2021, dated 2025).
Entries after “also recorded” stand apart in the source; their conditions may differ.

System: Purkinje cells in acute cerebellar slices from SCA2-58Q mouse
Assay: Cerebellar slice loose-patch recordings of spontaneous PC activity in SCA2-58Q mice
Assay type: cell-based
Conditions: 10 μM; for effect on PC firing pattern: bursting SCA2-58Q PC; for Average firing frequency (FF) after exposure: 10-s fragment of one PC recording, before application 2o 157.2 Hz, 2q 134.3 Hz
Method: The ISI distribution before and after 2o application, obtained from 10-s fragments of the recording was also analyzed (FIG. 9C). […] The ISI distribution before and after 2q application, obtained from 10-s fragments of the recording was also analyzed (FIG. 10A).
Transgenic SCA2-58Q mice and their wild type (WT) littermates were used in these experiments. SCA2-58Q mice were kindly provided to us by Dr. Stefan Pulst (University of Utah) and were crossed to the FVB background strain. Hemizygous male SCA2-58Q mice were crossed with the WT female mice to generate mixed litters. The genotyping was done via PCR for ATXN2 transgene. The volume of one PCR sample was 25 μl. The PCR mix per one sample contained: 2.5 μl 10× buffer for Taq polymerase, 0.5 μl 10 mM dNTP, 1.5 μl 25 mM MgCl2, 0.125 μl 20 μM primers (forward and reverse), 0.25 μl Taq polymerase, 2 μl DNA, and 18 μl dH2O. For forward and reverse primer sequences, see e.g., Egorova et al., Cell Calcium, 2021 January; 93: 102319. The PCR product has 232 bp. Mice were housed in groups of two to six in one cage in the vivarium. The temperature was kept 22-24° C. including 12 daylight hours. […] All procedures were approved by the Bioethics Committee of the Peter the Great St. Petersburg Polytechnic University at St. Petersburg, Russia, and followed the principles of the European convention (Strasbourg, 1986) and the Declaration of International medical association about humane treatment of animals (Helsinki, 1996).
Recordings of spontaneous PC activity from WT and SCA2-58Q mice at 7-8 months of age were performed. Briefly, the mice were anesthetized with 2,000 mg/kg urethane and transcardially perfused with ice-cold aCSF containing 85 mM NaCl, 24 mM NaHCO3, 25 mM glucose, 2.5 mM KCl, 0.5 mM CaCl2, 4 mM MgCl2, 1 mM NaH2PO4, and 75 mM sucrose. Solutions were equilibrated with carbogen (95% O2/5% CO2). Next, the cerebellum was dissected and 300 μm thick sagittal slices were cut with a VT1200S vibratome (Leica). […] The external bath solution used for the recording was the same as the recovery aCSF, but also contained 100 μM picrotoxin (PTX) and 10 μM 6,7-dinitroquinoxaline-2,3-dione (DNQX), equilibrated with carbogen. All recordings were made within 5-6 hours after cerebellum was dissected. The recording chamber was heated to 35° C. using TC-324C automatic temperature controller (Warner Instruments). Loose-patch recordings were made to evaluate the spontaneous activity of cerebellar PCs. Briefly, 1-3 MΩ glass pipettes were filled with the internal solution containing 140 mM NaCl buffered with 10 mM HEPES pH 7.3 and held at 0 mV. A loose patch (<100 MΩ) configuration was established at the PC soma at the axon hillock area. Spontaneous action potential currents were recorded for 5-60 min from each cell using Axon Multiclamp 700B amplifier (Molecular Devices). The 10 min recordings were analyzed for tonic or burst firing. Cells were characterized as firing tonically if they fired repetitive nonhalting spike trains for 10 min. A cell was characterized as bursting if it had more than 5% of the interspike intervals that fell outside of 3 SD from the mean of all interspike intervals in that cell. The analysis of PC firing was performed using Clampfit 10.2 (Molecular Devices). Data was plotted as the instantaneous firing rate every 100 ms for the entire recording duration.

SMILES: Cc1cc(Nc2ccc(F)c(Cl)c2)nc(-n2nc(C)cc2C)n1 [Compound 2o, N-(3-Chloro-4-fluorophenyl)-2-(3,5-dimethyl-1H-pyrazol-1-yl)-6-methyl-pyrimidin-4-amine]
- effect on PC firing frequency: significantly decreased the firing frequency of the cell
- effect on regularity of PC activity: improved the regularity of PC activity
- effect on PC firing pattern: converted bursting SCA2-58Q PC to tonic firing pattern; also recorded: normalize abnormal firing of Purkinje cells; also recorded: converts bursting patterns into tonic activity of PC
- Average firing frequency (FF) after exposure: 84.6 Hz

SMILES: Cc1cc(Nc2cc(Cl)ccc2F)nc(-n2nc(C)cc2C)n1 [Compound 2q, N-(5-Chloro-2-fluorophenyl)-2-(3,5-dimethyl-1H-pyrazol-1-yl)-6-methylpyrimidin-4-amine]
- effect on PC firing frequency: significantly decreased the firing frequency of the cell
- effect on regularity of PC activity: improved the regularity of PC activity
- time after application until cell activity switched to the silent mode: 8 min
- effect on PC firing pattern: converted bursting SCA2-58Q PC to tonic firing pattern; also recorded: normalize abnormal firing of Purkinje cells; also recorded: converts bursting patterns into tonic activity of PC and then into a silent mode
- Average firing frequency (FF) after exposure: 55.9 Hz
